# Experimental data as given in paper PMC10257043 (Molecular Plant Pathology, 2023).
# T1: Uvi2 (Ustilago hordei, UniProt I2G262)
# T1 sequence (I2G262 22-243): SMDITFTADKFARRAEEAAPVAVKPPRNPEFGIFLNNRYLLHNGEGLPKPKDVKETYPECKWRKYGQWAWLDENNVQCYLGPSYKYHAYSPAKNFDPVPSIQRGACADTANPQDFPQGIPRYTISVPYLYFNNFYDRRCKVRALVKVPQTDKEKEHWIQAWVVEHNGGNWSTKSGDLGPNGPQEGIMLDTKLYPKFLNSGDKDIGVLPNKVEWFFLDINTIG
# What was measured:
# Uvi2 = target: T1, Uvi2; assay: microscale thermophoresis; type: binding; conditions: MST as for Cpl1
# SEC-MALS = target: the molecule itself; assay: SEC-MALS
Molecule,Kd (Uvi2),stoichiometry N (SEC-MALS)
CC(=O)N[C@H]1[C@H](O[C@H]2[C@H](O)[C@@H](NC(C)=O)C(O)O[C@@H]2CO)O[C@H](CO)[C@@H](O)[C@@H]1O (some centres unmarked) [chitobiose],15 ± 3.72 µM,–
"Uvi2 (UHOR_02700 gene product), the Cpl1 homologue from Ustilago hordei, recombinant (natural protein) SMDITFTADKFARRAEEAAPVAVKPPRNPEFGIFLNNRYLLHNGEGLPKPKDVKETYPECKWRKYGQWAWLDENNVQCYLGPSYKYHAYSPAKNFDPVPSIQRGACADTANPQDFPQGIPRYTISVPYLYFNNFYDRRCKVRALVKVPQTDKEKEHWIQAWVVEHNGGNWSTKSGDLGPNGPQEGIMLDTKLYPKFLNSGDKDIGVLPNKVEWFFLDINTIG",–,2
